Measured values from ChEMBL document CHEMBL1201862, “PubChem BioAssay data set” (2004).
The source made the active and inactive calls.

Experiments:
[1] = test system: HeLa; assay: HeLa cell cytotoxicity, dose response, cytotoxicity control, ATP luminescence, cherry-pick samples (AID 687004); assay type: functional, cell-based; conditions: Homo sapiens
[2] = target: Mu-type opioid receptor (Homo sapiens, UniProt P35372); assay: Late-stage results from the probe development effort to identify antagonists of OPRK1: luminescence-based cell-based dose response OPRM1 counterscreen.; assay type: functional
Chain of Mu-type opioid receptor (P35372 whole entry): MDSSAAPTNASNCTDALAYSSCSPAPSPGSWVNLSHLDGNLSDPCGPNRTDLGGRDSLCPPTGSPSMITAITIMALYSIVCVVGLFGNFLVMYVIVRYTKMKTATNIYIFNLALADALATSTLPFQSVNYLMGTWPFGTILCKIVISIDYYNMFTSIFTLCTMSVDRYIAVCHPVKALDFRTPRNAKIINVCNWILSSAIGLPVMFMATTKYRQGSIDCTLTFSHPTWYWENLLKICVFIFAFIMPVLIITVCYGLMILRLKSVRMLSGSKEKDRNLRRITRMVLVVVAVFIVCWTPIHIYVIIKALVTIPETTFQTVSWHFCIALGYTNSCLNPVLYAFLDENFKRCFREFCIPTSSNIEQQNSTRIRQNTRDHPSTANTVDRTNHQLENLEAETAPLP

[3] = target: Delta-type opioid receptor (Homo sapiens, UniProt P41143); assay: Late-stage results from the probe development effort to identify antagonists of OPRK1: fluorescence-based cell-based dose response OPRD1 counterscreen.; assay type: functional
Chain of Delta-type opioid receptor (P41143 whole entry): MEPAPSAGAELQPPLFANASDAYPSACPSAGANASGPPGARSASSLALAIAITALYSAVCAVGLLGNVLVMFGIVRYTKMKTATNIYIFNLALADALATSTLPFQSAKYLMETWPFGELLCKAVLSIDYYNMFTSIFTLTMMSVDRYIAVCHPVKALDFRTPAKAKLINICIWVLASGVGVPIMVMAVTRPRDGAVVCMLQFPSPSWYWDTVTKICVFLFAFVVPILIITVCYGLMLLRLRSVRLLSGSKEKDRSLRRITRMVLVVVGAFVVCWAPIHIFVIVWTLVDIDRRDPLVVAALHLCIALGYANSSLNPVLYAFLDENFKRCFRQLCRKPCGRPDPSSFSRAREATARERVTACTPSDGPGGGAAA

[4] = A Cell-Based Confirmatory Screen for Compounds that Inhibit VEEV, TC-83 (6).; assay type: functional
[5] = A Cell-Based Confirmatory Screen for Compounds that Inhibit VEEV, TC-83 (8).; assay type: functional
[6] = cytotoxicity in HeLa cells, dose response, cytotoxicity control, cell-based, plate reader, dry powder (AID 651946); assay type: functional
[7] = target: T1, Streptokinase A (Streptococcus pyogenes serotype M1, UniProt P10520); assay: S. pyogenes streptokinase expression inhibitors, potency, dose response, plasminogen activation absorbance, OD405 (AID 1914); assay type: functional, Streptococcus pyogenes M1 GAS;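 further: secreted streptokinase activity via plasminogen activation per viability signal from cell pellet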
T1 sequence (P10520 whole entry): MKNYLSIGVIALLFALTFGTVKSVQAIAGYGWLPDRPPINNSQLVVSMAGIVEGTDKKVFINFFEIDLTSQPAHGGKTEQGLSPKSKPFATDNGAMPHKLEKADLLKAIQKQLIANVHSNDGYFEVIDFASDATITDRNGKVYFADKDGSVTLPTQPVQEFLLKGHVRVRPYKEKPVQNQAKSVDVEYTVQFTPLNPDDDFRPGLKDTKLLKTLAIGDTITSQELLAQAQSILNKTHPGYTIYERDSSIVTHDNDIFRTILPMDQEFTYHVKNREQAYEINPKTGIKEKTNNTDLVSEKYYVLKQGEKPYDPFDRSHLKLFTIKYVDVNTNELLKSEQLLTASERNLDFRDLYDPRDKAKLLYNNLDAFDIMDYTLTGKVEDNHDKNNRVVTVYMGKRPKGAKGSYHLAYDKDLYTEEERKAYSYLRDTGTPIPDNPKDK

[8] = inhibitors of SNCA 5'UTR-driven reporter translation, confirmation, H4 neuroglioma cells, luminescence (AID 1988); assay type: functional, cell-based
[9] = luciferase reporter signal reduction – luminescence, H4-C neuroglioblastoma cells, dose response (AID 2458); assay type: functional, cell-based;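 further: H4 neuroglioblastoma cells stably carrying a luciferase reporter gene fusion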
[10] = test system: Streptococcus sp. 'group A'; assay: growth inhibition of control SK(-) GAS strain, dose response, counter-screen for streptokinase expression inhibitor project, luminescence, kanamycin, BacTiterGlo, confirmation (AID 1900); assay type: functional, organism-based
[11] = cells; assay type: functional, cell-based
[12] = test system: HEK293; assay: inhibitors of LMP1-driven NF-kB reporter, dose response, cell-based, HEK293, luciferase, cherry-pick (AID 588343); assay type: functional; conditions: Homo sapiens
[13] = target: Heat shock protein HSP 90-alpha (Homo sapiens, UniProt P07900); assay type: functional, organism-based
[14] = test system: INS1; assay: beta cell apoptosis inhibitors, cytokine rescue, dose response, luminescence, retest (AID 449756); assay type: functional, cell-based; conditions: Rattus norvegicus;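 further: cell death triggered by IL-1 beta plus TNF-alpha plus IFN-gamma mixture; protective hits raise ATP signal compared with cytokine alone wells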
[15] = Luminescence Cell-Based Dose Response HTS to Identify Inhibitors of 5'UTR Stem-Loop Driven Prion Protein mRNA Translation in H4 Neuroglioblastoma Cells. [Related pubchem assays: 1827 (Project Summary), 1813 (Primary HTS)]; assay type: functional
[16] = test system: BJ; assay: cells; assay type: functional, cell-based; conditions: Homo sapiens
[17] = inhibitors of SNCA 5'UTR-driven translation, confirmation, luminescence, H4 neuroglioblastoma cells, dose confirmation (AID 2454); assay type: functional, cell-based;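 further: H4 neuroglioblastoma cells carrying an alpha-synuclein 5'UTR luciferase reporter; potency for inhibition of the luciferase signal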
[18] = cytotoxicity toward DRD oncogenic fibroblasts, dose response, cell-based, non-viral oncogenic, luminescence (AID 1934); assay type: functional; conditions: Homo sapiens
[19] = miR-122 activators in hepatoma reporter cells, dose response, cell-based, Huh7 psiCHECK-miR122, Renilla luciferase, cherry-picked (AID 651956); assay type: functional;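 further: huh7 hepatoma cells stably carrying a psiCHECK-2 miR-122 sensor plasmid; renilla luciferase signal reporting endogenous miR-122 activity after 48 h compound exposure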
[20] = inhibitors of firefly luciferase expression or activity, dose response, H4 neuroglioma cells, luminescence (AID 1990); assay type: functional, cell-based
[21] = test system: BJ; assay: cytotoxicity toward BJ-TERT-LT-ST fibroblasts, dose response, cell-based, RAS-independent, luminescence (AID 1935); assay type: functional; conditions: Homo sapiens;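 further: BJ fibroblasts immortalized with TERT plus LT and ST oncogenes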
[22] = HEK293T cytotoxicity, dose response, cytotoxicity control for miR-122 modulator project, cell-based, activator set, cherry-pick (AID 720690); assay type: functional;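 further: HEK293T human cells scored for general mammalian cytotoxicity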
[23] = test system: BJ; assay: cytotoxicity toward BJ-TERT fibroblasts, dose response, cell-based, RAS-independent, luminescence (AID 1933); assay type: functional; conditions: Homo sapiens
[24] = test system: Streptococcus; assay: Group A Streptococcus viability loss, dose response, counter-screen for streptokinase expression inhibitor project, luminescence, BacTiterGlo (AID 1915); assay type: functional, organism-based;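 further: potency for reduction of bacterial viability or growth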
[25] = HEK293T cytotoxicity, dose response, cytotoxicity control for miR-122 modulator project, cell-based, inhibitor set, cherry-pick, set 2 (AID 720697); assay type: functional
[26] = test system: BJ; assay: cytotoxicity toward Ras-transformed BJeLR fibroblasts, dose response, cell-based, alamar blue fluorescence, cherrypicked samples (AID 2631); assay type: functional; conditions: Homo sapiens;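 further: confirmatory dose-response assay in RAS-dependent BJ fibroblasts engineered with TERT, LT and ST, with cytotoxicity read by fluorescence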
[27] = target: 1-phosphatidylinositol 4,5-bisphosphate phosphodiesterase beta-3 (Homo sapiens, UniProt Q01970); assay: Fluorescence-based biochemical high throughput dose response assay to identify inhibitors of phospholipase C isozymes (PLC-B3).
Chain of 1-phosphatidylinositol 4,5-bisphosphate phosphodiesterase beta-3 (Q01970 whole entry): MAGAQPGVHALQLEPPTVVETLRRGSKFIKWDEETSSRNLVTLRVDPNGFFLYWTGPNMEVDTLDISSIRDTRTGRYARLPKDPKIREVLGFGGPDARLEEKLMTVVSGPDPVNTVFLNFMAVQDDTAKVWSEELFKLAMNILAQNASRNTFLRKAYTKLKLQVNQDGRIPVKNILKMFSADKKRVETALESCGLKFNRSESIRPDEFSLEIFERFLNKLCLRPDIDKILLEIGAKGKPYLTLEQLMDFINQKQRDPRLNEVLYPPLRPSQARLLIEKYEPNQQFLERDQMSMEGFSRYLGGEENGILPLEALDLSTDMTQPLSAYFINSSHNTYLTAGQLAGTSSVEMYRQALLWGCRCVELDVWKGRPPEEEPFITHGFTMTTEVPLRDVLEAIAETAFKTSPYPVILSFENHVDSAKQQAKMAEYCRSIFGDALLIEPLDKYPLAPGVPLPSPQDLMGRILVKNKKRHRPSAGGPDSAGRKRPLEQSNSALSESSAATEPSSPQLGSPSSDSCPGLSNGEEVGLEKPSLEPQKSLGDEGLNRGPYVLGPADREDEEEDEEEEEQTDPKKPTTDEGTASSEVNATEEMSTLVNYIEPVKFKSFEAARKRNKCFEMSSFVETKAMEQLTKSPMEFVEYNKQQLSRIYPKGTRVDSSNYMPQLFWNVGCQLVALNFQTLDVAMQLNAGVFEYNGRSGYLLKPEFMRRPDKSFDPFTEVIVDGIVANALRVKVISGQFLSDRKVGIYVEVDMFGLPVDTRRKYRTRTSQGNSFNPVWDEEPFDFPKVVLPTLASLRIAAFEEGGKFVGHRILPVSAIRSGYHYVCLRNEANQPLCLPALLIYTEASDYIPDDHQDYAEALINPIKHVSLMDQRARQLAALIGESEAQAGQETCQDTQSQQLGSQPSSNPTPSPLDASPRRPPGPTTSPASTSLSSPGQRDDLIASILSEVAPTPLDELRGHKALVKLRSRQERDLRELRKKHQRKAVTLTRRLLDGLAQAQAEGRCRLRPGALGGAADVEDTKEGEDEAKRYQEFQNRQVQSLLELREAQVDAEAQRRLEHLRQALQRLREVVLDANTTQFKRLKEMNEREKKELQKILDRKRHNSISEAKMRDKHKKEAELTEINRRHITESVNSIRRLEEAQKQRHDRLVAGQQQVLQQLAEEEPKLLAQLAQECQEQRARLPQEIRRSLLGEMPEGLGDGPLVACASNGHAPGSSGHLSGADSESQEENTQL

[28] = target: 1-phosphatidylinositol 4,5-bisphosphate phosphodiesterase gamma-1 (Homo sapiens, UniProt P19174); assay: Counterscreen for inhibitors of phospholipase C isozymes (PLC-B3): Fluorescence-based biochemical high throughput dose response assay to identify inhibitors of phospholipase C isozymes (PLC-gamma1).
Chain of 1-phosphatidylinositol 4,5-bisphosphate phosphodiesterase gamma-1 (P19174 whole entry): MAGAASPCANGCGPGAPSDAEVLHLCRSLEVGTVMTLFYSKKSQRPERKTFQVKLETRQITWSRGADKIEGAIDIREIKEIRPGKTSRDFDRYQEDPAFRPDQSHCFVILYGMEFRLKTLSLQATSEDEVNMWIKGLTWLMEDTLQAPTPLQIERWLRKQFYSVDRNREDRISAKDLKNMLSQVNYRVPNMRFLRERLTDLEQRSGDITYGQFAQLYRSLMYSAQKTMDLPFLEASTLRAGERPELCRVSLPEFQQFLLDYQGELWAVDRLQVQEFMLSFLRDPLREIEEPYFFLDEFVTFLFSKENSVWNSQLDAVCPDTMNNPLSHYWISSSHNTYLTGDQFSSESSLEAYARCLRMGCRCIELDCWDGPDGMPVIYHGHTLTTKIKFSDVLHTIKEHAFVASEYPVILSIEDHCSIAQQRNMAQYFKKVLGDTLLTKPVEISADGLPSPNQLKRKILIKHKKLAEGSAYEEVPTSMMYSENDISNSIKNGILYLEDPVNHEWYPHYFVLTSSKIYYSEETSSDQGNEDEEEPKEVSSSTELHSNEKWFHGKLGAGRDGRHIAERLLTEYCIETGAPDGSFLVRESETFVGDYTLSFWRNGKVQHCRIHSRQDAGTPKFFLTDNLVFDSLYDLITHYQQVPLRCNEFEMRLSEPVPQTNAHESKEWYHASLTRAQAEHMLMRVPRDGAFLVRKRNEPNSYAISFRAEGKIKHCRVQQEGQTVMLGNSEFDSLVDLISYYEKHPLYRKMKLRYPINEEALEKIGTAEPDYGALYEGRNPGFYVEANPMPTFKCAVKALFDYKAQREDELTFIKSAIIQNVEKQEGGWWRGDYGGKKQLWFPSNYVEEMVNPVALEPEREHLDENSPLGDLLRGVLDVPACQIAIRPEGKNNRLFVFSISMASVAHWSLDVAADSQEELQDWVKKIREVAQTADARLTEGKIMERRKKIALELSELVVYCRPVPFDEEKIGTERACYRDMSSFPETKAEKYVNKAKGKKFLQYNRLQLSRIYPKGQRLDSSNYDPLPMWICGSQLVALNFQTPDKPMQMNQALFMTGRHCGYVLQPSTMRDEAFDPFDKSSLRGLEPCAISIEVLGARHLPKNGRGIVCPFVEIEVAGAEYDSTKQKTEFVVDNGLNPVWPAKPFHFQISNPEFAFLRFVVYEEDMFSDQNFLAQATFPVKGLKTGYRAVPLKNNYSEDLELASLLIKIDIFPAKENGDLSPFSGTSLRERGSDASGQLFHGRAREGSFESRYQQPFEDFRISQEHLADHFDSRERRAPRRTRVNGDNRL

## COc1cccc(S(=O)(=O)Nc2ccc3c(c2)OC[C@H](C)NC[C@@H](C)[C@H](OC)CN(C)C3=O)c1
[1]
  AC50: > 52 µM (inactive)

## COC(=O)c1cc(Br)cnc1N1CCC(NC2CCCCC2OC)CC1 (stereo not drawn)
[2]
  IC50: 12 µM (inactive)
[3]
  IC50: > 50 µM (inactive)

## COc1cccc(-n2c(CN3CCNCC3)nc3ccc([N+](=O)[O-])cc3c2=O)c1
[4]
  IC50: 10.4 µM (active)
[5]
  IC50: 10.4 µM (active)

## c1ccc(-c2nnc(SC(c3ccccc3)c3ccccc3)o2)cc1
[6]
  AC50: > 52 µM (inactive)

## Cc1sc2ncnc(N/N=C/c3ccccc3O)c2c1C
[7]
  EC50: 8.21 µM (active)
[8]
  EC50: < 0.1 µM (active)
[9]
  EC50: 1.17 µM (active)
[10]
  EC50: 1.97 µM (active)
[11]
  EC50: 1.22 µM (active)
[12]
  AC50: 9.16 µM (active)
[13]
  AC50: 2.1 µM (active)
[14]
  AC50: 0.642 µM (active)
[15]
  EC50: 20.5 µM (active)
[16]
  EC50: 4.2 µM (active)
[17]
  EC50: 0.993 µM (active)
[18]
  EC50: 3.5 µM (active)
[19]
  AC50: 8.43 µM (active)
[20]
  EC50: 7.52 µM (active)
[21]
  EC50: 5.79 µM (inconclusive)
[22]
  AC50: 3.28 µM (active)
[23]
  EC50: 5.5 µM (inconclusive)
[24]
  EC50: 6.53 µM (active)
[25]
  AC50: 1.19 µM (active)
[26]
  EC50: 4.53 µM (active)

## O=C(N/N=C/c1ccc(OC(=O)c2ccccc2)cc1)c1cccc(O)c1
[27]
  IC50: > 122 µM (inactive)
[28]
  IC50: > 122 µM (inactive)
